The values that follow come from PubChem BioAssay AID328 (DTP/NCI, 2004).

This test relates to BDF1 mice, P388 leukemia ip, median survival T/C. As to the kind of experiment: NCI In Vivo Anticancer Drug Screen. Data for tumor model P388 Leukemia (intraperitoneal) in B6D2F1 (BDF1) mice. Particulars: endpoint: median survival time, higher = longer survival. The method in brief:
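Mice carrying the transplantable tumour receive compound or vehicle. Survival is followed in each arm, and the treated measure is divided by the vehicle measure.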

The mark [1] stands for this setting: dose: 100.0 mg/kg/injection, schedule: Q04DX003 (ip), vehicle: Klucel (hydroxypropylcellulose) (HPC).
Where [2] appears, read: dose: 200.0 mg/kg/injection, schedule: Q04DX003 (ip), vehicle: Klucel (hydroxypropylcellulose) (HPC).
[3] abbreviates: dose: 400.0 mg/kg/injection, schedule: Q04DX003 (ip), vehicle: Klucel (hydroxypropylcellulose) (HPC).
Setting [4] is: dose: 50.0 mg/kg/injection, schedule: Q04DX003 (ip), vehicle: saline with Tween-80.
Where [5] appears, read: dose: 1.56 mg/kg/injection, schedule: Q01DX009 (ip), vehicle: saline.
Where [6] appears, read: dose: 100.0 mg/kg/injection, schedule: Q01DX009 (ip), vehicle: Klucel (hydroxypropylcellulose) (HPC).
[7] abbreviates: dose: 200.0 mg/kg/injection, schedule: Q01DX009 (ip), vehicle: Klucel (hydroxypropylcellulose) (HPC).
Where [8] appears, read: dose: 400.0 mg/kg/injection, schedule: Q01DX009 (ip), vehicle: Klucel (hydroxypropylcellulose) (HPC).
Where [9] appears, read: dose: 100.0 mg/kg/injection, schedule: Q04DX003 (ip), vehicle: saline with Tween-80.
Setting [10] is: dose: 200.0 mg/kg/injection, schedule: Q04DX003 (ip), vehicle: saline with Tween-80.
Where [11] appears, read: dose: 400.0 mg/kg/injection, schedule: Q04DX003 (ip), vehicle: saline with Tween-80.
The mark [12] stands for this setting: dose: 6.25 mg/kg/injection, schedule: Q01DX009 (ip), vehicle: saline.

Structures are written as SMILES. “And” between values parts separate entries of the source, which are not always exact repeats. Identical values can stand only once. Inconclusive results and toxic doses are left out. Non-standard residues stand in square brackets, D forms with d. Residues, ends and D or L forms follow the SMILES beside them. ξ: configuration not given here. *: point of attachment. Cbz = O=C(OCc1ccccc1)*; Boc = CC(C)(C)OC(=O)*; ξK = NCCCCC(N)C(=O)O; OBn = c1ccc(CO*)cc1

As to `CC/C(=C(/CC)c1ccc(O)cc1)c1ccc(O)cc1`, the T/C was 105 % of control (dose: 12.5 mg/kg/injection, schedule: Q01DX009 (ip), vehicle: carboxymethylcellulose (CMC)); 100 % of control and 110 % of control (dose: 12.5 mg/kg/injection, schedule: Q01DX010 (ip), vehicle: saline); 89 % of control and 93 % of control (dose: 25.0 mg/kg/injection, schedule: Q01DX009 (ip), vehicle: carboxymethylcellulose (CMC)); 110 % of control (dose: 25.0 mg/kg/injection, schedule: Q01DX010 (ip), vehicle: saline); 114 % of control and 120 % of control (dose: 50.0 mg/kg/injection, schedule: Q01DX008 (ip), vehicle: saline with Tween-80); 97 % of control (dose: 50.0 mg/kg/injection, schedule: Q01DX009 (ip), vehicle: carboxymethylcellulose (CMC)). The T/C runs as follows: (dose: 50.0 mg/kg/injection, schedule: Q01DX010 (ip), vehicle: saline) 100 % of control and 115 % of control; (dose: 100.0 mg/kg/injection, schedule: Q01DX008 (ip), vehicle: saline with Tween-80) 110 % of control and 116 % of control; (dose: 100.0 mg/kg/injection, schedule: Q01DX009 (ip), vehicle: carboxymethylcellulose (CMC)) 88 % of control and 90 % of control; (dose: 100.0 mg/kg/injection, schedule: Q01DX010 (ip), vehicle: saline) 90 % of control and 95 % of control; (dose: 200.0 mg/kg/injection, schedule: Q01DX008 (ip), vehicle: saline with Tween-80) 111 % of control and 112 % of control; (dose: 200.0 mg/kg/injection, schedule: Q01DX009 (ip), vehicle: carboxymethylcellulose (CMC)) 114 % of control. Further, the T/C (dose: 400.0 mg/kg/injection, schedule: Q01DX008 (ip), vehicle: saline with Tween-80) is 112 % of control.

As to `C=CC(O)CN1CC1` (stereo not given), the T/C (dose: 10.0 mg/kg/injection, schedule: Q04DX003 (ip), vehicle: saline) is 191 % of control.

Turning to `CC(C)(C)OC(=O)NCC(=O)NC(CCCCNC(=O)OCc1ccccc1)C(=O)OCc1ccccc1` (stereo not drawn) (Boc-Gly-[ξK](Cbz)-OBn), the T/C is, setting by setting: (dose: 50.0 mg/kg/injection, schedule: Q01DX005 (ip), vehicle: saline with Tween-80) 95 % of control; (dose: 100.0 mg/kg/injection, schedule: Q01DX005 (ip), vehicle: saline with Tween-80) 90 % of control; (dose: 200.0 mg/kg/injection, schedule: Q01DX005 (ip), vehicle: saline with Tween-80) 104 % of control.

For `OC12CCCC3CCCC(CCC1)C32` (stereo not given), the T/C reads like this: under setting [1], 100 % of control; under setting [2], 100 % of control; under setting [3], 100 % of control.

`CCCCCCCCCCCCCCCCCC(=O)NN`: the T/C is, setting by setting: (dose: 12.5 mg/kg/injection, schedule: Q04DX003 (ip), vehicle: saline with Tween-80) 105 % of control; (dose: 25.0 mg/kg/injection, schedule: Q04DX003 (ip), vehicle: saline with Tween-80) 98 % of control; under setting [4], 98 % of control.

For `c1cc[c]([Pb]([c]2ccccc2)([c]2ccccc2)[n]2c3ccccc3c3ccccc32)cc1`, the T/C runs as follows: (dose: 0.19 mg/kg/injection, schedule: Q01DX009 (ip), vehicle: saline) 90 % of control; (dose: 0.39 mg/kg/injection, schedule: Q01DX009 (ip), vehicle: saline) 100 % of control; (dose: 0.78 mg/kg/injection, schedule: Q01DX009 (ip), vehicle: saline) 95 % of control; under setting [5], 100 % of control; (dose: 3.0 mg/kg/injection, schedule: Q04DX003 (ip), vehicle: saline) 112 % of control; (dose: 4.12 mg/kg/injection, schedule: Q01DX009 (ip), vehicle: saline) 100 % of control. Moreover, the T/C is 116 % of control (dose: 6.0 mg/kg/injection, schedule: Q04DX003 (ip), vehicle: saline) and 104 % of control (dose: 12.0 mg/kg/injection, schedule: Q04DX003 (ip), vehicle: saline).

`CCC/C(=C\C(=O)O)CC`: the T/C runs as follows: under setting [6], 109 % of control; under setting [7], 100 % of control; under setting [8], 104 % of control.

For `Cc1c(C#N)c2nc(C(=O)c3ccc(Br)cc3)cc(-c3ccc(Br)cc3)n2c1C`, the T/C reads like this: (dose: 25.0 mg/kg/injection, schedule: Q01DX009 (ip), vehicle: saline with Tween-80) 109 % of control; (dose: 50.0 mg/kg/injection, schedule: Q01DX009 (ip), vehicle: saline with Tween-80) 104 % of control; under setting [4], 87 % of control; (dose: 100.0 mg/kg/injection, schedule: Q01DX009 (ip), vehicle: saline with Tween-80) 104 % of control; under setting [9], 91 % of control; (dose: 200.0 mg/kg/injection, schedule: Q01DX009 (ip), vehicle: saline with Tween-80) 109 % of control. Moreover, the T/C under setting [10] is 87 % of control and the T/C under setting [11] is 87 % of control.

Regarding `CCSC(C#N)=C(c1ccccc1)c1ccccc1`, the T/C runs as follows: under setting [9], 103 % of control; under setting [10], 94 % of control; under setting [11], 92 % of control.

Take `Cc1cccc2cc3cccc[n+]3cc12`: the T/C under setting [5] is 104 % of control; the T/C (dose: 3.12 mg/kg/injection, schedule: Q01DX009 (ip), vehicle: saline) was 104 % of control; the T/C under setting [12] was 109 % of control; the T/C (dose: 6.75 mg/kg/injection, schedule: Q04DX003 (ip), vehicle: saline) is 105 % of control; the T/C (dose: 9.2 mg/kg/injection, schedule: Q01DX009 (ip), vehicle: saline) was 109 % of control; the T/C (dose: 13.5 mg/kg/injection, schedule: Q04DX003 (ip), vehicle: saline) is 90 % of control.

On to `CCCCCCCCCCC[N+](C)(C)CC(O)C[N+](C)(C)CCCCCCCCCCC`, for which the T/C is 102 % of control (dose: 3.13 mg/kg/injection, schedule: Q01DX009 (ip), vehicle: saline); 111 % of control under setting [12]; 118 % of control (dose: 12.5 mg/kg/injection, schedule: Q01DX009 (ip), vehicle: saline).

Regarding `C[N+](C)(CC(=O)Nc1ccc(Cl)c(Cl)c1)Cc1ccc(Cl)c(Cl)c1`, the T/C was 120 % of control (dose: 6.25 mg/kg/injection, schedule: Q01DX009 (ip), vehicle: saline with Tween-80) and 108 % of control (dose: 12.5 mg/kg/injection, schedule: Q01DX009 (ip), vehicle: saline with Tween-80).

Turning to `C(#CSCc1ccccc1)SCc1ccccc1`, the T/C is 105 % of control under setting [6]; 87 % of control under setting [1]; 100 % of control under setting [7]; 100 % of control under setting [2]; 100 % of control under setting [8]; 91 % of control under setting [3].

On to `CCCCCCCCCCCC(=O)Nc1ccc(C(=O)OCC)cc1`, for which the T/C (dose: 100.0 mg/kg/injection, schedule: Q01DX001 (ip), vehicle: saline with Tween-80) is 91 % of control; the T/C (dose: 200.0 mg/kg/injection, schedule: Q01DX001 (ip), vehicle: saline with Tween-80) was 87 % of control; the T/C (dose: 400.0 mg/kg/injection, schedule: Q01DX001 (ip), vehicle: saline with Tween-80) is 91 % of control.

With `N#CC(O)c1ccccc1` (stereo not given), the T/C is 107 % of control (dose: 2.5 mg/kg/injection, schedule: Q01DX010 (ip), vehicle: acetone); 92 % of control (dose: 5.0 mg/kg/injection, schedule: Q01DX010 (ip), vehicle: acetone); 92 % of control (dose: 10.0 mg/kg/injection, schedule: Q01DX010 (ip), vehicle: acetone).

In the case of `COc1cc(N(C)C)c(OC)cc1C=O`, the T/C was 100 % of control (dose: 50.0 mg/kg/injection, schedule: Q01DX009 (ip), vehicle: Klucel (hydroxypropylcellulose) (HPC)); 90 % of control under setting [6]; 95 % of control under setting [1]; 109 % of control under setting [7]; 95 % of control under setting [2]; 100 % of control under setting [3].

With `CCOc1ccc(Br)cc1/C=C/C(C)=O`, the T/C (dose: 100.0 mg/kg/injection, schedule: Q01DX009 (ip), vehicle: saline) is 109 % of control; the T/C (dose: 100.0 mg/kg/injection, schedule: Q04DX003 (ip), vehicle: saline) is 112 % of control; the T/C (dose: 200.0 mg/kg/injection, schedule: Q01DX009 (ip), vehicle: saline) was 95 % of control; the T/C (dose: 200.0 mg/kg/injection, schedule: Q04DX003 (ip), vehicle: saline) is 95 % of control; the T/C (dose: 400.0 mg/kg/injection, schedule: Q01DX009 (ip), vehicle: saline) is 104 % of control; the T/C (dose: 400.0 mg/kg/injection, schedule: Q04DX003 (ip), vehicle: saline) was 100 % of control.
